Values of other authors in patent US6906047B2, “Aqueous ifosfamide composition” (Gensia Sicor Pharmaceuticals, Inc., priority 2001, dated 2005).

O=P1(NCCCl)OCCCN1CCCl (stereo not shown) [ifosfamide, 3-(2-chloroethyl)-2-[(2-chloroethylamino)]-tetrahydro-2H-1,3,2-oxazaphosphorin-2-oxide]
solubility of ifosfamide in water: about 10 % by weight
